# Method: The amount of solvent and CMF used are detailed in Table 1.
# Once the vials were filled and sealed, each vial was held at the temperatures listed in Table 1 above for 20-30 minutes, at which time a sample was taken and analyzed by HPLC.
# An aliquot was analyzed by HPLC. The following HPLC protocol was used. The column was an Agilent Technologies RX-Sil silica column; 4.6×100 mm packed with 1.8 micron silica beads. Column temperature was maintained at 50° C. Injection volume was 1.0 microliter. Mobile phase composition was 80% hexane and 20% tetrahydrofuran flowing at 1.0 mL/min.
row,SMILES,solubility for CMF
1,CCCCCCCCCC [Decane],relatively low solubility
2,CCCCC [Pentane],relatively low solubility
3,CCCCCCCCCCCCCC [Tetradecane],relatively low solubility
4,Clc1ccccc1 [Chlorobenzene],relatively soluble

# The next lines start with the values.
row,solubility for CMF,SMILES
1,relatively low solubility,CCCCCC [Hexane]
2,relatively low solubility,CCCCCCCCCCCCCCCCCCCC [Eicosane]

# Source: patent publication US9388151B2, “Methods for producing 5-(halomethyl) furfural” (MICROMIDAS, INC., priority 2012, dated 2016)
